From ChEMBL document CHEMBL6127091, “Design, synthesis, and evaluation of chalcone derivatives as xanthine oxidase inhibitors” (Eur J Med Chem, 2024)
The source made the active and inactive calls. The rule behind the calls is not given here.

Experiments:
[1] = molecular target: Xanthine dehydrogenase/oxidase (Bos taurus, UniProt P80457); experiment: Inhibition of bovine milk xanthine oxidase using xanthine as substrate preincubated for 30 mins followed by substrate addition by absorbance based analysis
Chain of Xanthine dehydrogenase/oxidase (Bos taurus, UniProt P80457) (P80457 whole entry): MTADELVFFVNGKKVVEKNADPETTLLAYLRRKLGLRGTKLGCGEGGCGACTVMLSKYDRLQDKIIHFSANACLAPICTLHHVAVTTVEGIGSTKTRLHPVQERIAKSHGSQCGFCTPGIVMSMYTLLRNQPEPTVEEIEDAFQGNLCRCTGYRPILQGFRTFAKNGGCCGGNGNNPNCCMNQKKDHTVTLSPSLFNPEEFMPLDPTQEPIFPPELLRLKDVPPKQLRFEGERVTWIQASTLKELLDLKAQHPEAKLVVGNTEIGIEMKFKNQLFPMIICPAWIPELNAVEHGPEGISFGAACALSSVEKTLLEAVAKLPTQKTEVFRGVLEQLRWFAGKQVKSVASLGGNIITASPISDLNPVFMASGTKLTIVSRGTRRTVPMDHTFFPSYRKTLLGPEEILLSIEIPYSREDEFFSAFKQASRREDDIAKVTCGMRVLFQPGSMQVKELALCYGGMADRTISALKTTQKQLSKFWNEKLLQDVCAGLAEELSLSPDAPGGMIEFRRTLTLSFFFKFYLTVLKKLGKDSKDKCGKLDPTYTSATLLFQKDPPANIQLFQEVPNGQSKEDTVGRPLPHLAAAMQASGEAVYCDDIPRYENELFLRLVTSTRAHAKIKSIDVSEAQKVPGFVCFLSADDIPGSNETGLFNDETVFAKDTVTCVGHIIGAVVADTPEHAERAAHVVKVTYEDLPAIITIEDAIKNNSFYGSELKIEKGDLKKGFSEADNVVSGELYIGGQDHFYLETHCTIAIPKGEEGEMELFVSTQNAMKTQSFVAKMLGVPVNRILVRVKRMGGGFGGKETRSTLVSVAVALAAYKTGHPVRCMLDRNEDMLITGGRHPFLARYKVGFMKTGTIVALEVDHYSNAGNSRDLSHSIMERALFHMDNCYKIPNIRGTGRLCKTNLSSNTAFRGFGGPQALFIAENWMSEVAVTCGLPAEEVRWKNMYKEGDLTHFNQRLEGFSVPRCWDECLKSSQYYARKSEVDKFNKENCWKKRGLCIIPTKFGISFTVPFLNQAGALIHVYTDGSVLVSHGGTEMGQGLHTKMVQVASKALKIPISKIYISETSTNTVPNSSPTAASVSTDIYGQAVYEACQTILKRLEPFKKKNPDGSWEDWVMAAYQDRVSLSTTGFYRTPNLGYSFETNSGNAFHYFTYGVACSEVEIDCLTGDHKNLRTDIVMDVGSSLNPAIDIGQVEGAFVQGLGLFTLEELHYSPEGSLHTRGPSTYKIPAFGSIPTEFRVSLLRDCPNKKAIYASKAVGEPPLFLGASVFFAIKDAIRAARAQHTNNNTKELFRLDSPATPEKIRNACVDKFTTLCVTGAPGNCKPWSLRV

Rattus norvegicus [2] = experiment: Anti-hyperuricemia effect in PO-induced hyperuricemia Sprague-Dawley rat model assessed as decrease in serum uric acid level at 10 mg/kg, po measured after 2 hrs; format: functional, organism-based
[3] = Effect on serum creatinine level in PO-induced hyperuricemia Sprague-Dawley rat model at 10 mg/kg, po measure upto 8 hrs; format: toxicity, organism-based; settings: in vivo
[4] = Effect on serum AST/ALT ratio in PO-induced hyperuricemia Sprague-Dawley rat model at 10 mg/kg, po measure upto 8 hrs; format: toxicity, organism-based; settings: in vivo
[5] = molecular target: T1, Xanthine dehydrogenase/oxidase (Homo sapiens, UniProt P47989); experiment: Inhibition of xanthine oxidase (unknown origin)
T1 sequence (P47989 whole entry): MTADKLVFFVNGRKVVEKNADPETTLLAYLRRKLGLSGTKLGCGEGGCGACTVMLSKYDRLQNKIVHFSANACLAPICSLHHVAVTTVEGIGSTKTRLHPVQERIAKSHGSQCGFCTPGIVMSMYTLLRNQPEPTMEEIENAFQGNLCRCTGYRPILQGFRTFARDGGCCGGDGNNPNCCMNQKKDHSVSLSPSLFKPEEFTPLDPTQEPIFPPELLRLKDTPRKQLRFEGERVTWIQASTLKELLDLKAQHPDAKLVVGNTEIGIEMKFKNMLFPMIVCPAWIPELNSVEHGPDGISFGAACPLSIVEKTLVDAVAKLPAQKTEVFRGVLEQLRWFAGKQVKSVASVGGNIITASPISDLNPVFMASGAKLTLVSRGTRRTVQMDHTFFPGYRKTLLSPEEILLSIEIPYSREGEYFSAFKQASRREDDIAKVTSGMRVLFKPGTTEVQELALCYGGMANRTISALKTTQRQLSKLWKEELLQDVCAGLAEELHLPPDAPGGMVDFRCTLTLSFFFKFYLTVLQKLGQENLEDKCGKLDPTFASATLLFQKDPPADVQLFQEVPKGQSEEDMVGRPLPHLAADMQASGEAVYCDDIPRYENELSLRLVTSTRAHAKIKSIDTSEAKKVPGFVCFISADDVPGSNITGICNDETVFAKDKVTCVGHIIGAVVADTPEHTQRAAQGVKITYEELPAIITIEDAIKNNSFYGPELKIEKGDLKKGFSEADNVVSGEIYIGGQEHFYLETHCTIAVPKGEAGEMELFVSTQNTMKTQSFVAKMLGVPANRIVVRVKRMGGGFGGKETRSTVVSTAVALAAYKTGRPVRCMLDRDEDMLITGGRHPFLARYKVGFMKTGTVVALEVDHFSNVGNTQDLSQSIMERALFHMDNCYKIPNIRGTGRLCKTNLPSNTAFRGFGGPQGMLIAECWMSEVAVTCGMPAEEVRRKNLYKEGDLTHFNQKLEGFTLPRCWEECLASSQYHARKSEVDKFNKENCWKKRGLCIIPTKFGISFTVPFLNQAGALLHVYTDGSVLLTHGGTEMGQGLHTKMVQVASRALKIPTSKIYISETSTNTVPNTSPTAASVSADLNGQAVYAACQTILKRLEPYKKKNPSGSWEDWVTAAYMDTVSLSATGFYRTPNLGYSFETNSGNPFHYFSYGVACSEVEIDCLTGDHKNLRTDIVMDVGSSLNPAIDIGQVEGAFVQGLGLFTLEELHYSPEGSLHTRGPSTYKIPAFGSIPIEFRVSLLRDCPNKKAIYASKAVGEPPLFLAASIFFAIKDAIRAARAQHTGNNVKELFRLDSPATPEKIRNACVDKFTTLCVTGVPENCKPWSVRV

[6] = molecular target: T1, Xanthine dehydrogenase/oxidase; experiment: Inhibition of xanthine oxidase (unknown origin) using xanthine as substrate preincubated for 20 mins followed by substrate addition measured for 5 mins by absorbance based analysis
[7] = molecular target: T1, Xanthine dehydrogenase/oxidase; experiment: Reversible inhibition of xanthine oxidase (unknown origin) using xanthine as substrate by absorbance based analysis
[8] = molecular target: T1, Xanthine dehydrogenase/oxidase; experiment: Mixed-type inhibition of xanthine oxidase (unknown origin) using xanthine as substrate by absorbance based analysis
AML12 = experiment: Cytotoxicity in mouse AML12 cells at 1 to 20 uM incubated for 24 hrs by MTT assay; format: toxicity, cell-based; settings: aml12, 24 h, dose 1-20 µM
Rattus norvegicus [9] = experiment: Anti-hyperuricemia effect in PO-induced hyperuricemia Sprague-Dawley rat model assessed as decrease in serum uric acid level at 10 mg/kg, po measured for 1 to 6 hrs; format: functional, organism-based; settings: time 1-6 hrs
Rattus norvegicus [10] = experiment: Anti-hyperuricemia effect in PO-induced hyperuricemia Sprague-Dawley rat model assessed as decrease in serum uric acid level at 10 to 40 mg/kg, po measured after 2 hrs; format: functional, organism-based; settings: dose 10-40 mg/kg
[11] = Effect on serum creatinine level in PO-induced hyperuricemia Sprague-Dawley rat model at 10 to 40 mg/kg, po measure upto 8 hrs; format: toxicity, organism-based; settings: in vivo, dose 10-40 mg/kg
[12] = Effect on BUN level in PO-induced hyperuricemia Sprague-Dawley rat model at 10 to 40 mg/kg, po measure upto 8 hrs; format: toxicity, organism-based; settings: in vivo, dose 10-40 mg/kg
[13] = Effect on serum AST/ALT ratio in PO-induced hyperuricemia Sprague-Dawley rat model at 10 to 40 mg/kg, po measure upto 8 hrs; format: toxicity, organism-based; settings: in vivo, dose 10-40 mg/kg
[14] = Cytotoxicity in mouse AML12 cells assessed as cell viability at 20 uM incubated for 24 hrs by MTT assay relative to control; format: toxicity, cell-based; settings: read-out: Activity
[15] = Cytotoxicity in mouse AML12 cells assessed as cell viability at 1 to 10 uM incubated for 24 hrs by MTT assay relative to control; format: toxicity, cell-based; settings: dose 1-10 µM, read-out: Activity

Row | Compound | IC50 [1] | also measured
1 | O=C(O)c1ccc(O)c(/C=C/C(=O)c2nccs2)c1 | 226 nM | 
2 | O=C(O)c1ccc(O)c(/C=C/C(=O)c2ccc3c(c2)CCC3)c1 | 559 nM | 
3 | O=C(O)c1ccc(O)c(/C=C/C(=O)c2cc[nH]c2)c1 | 301 nM | 
4 | CCCOc1ccc(C(=O)/C=C/c2cc(C(=O)O)ccc2O)cc1 | 542 nM | 
5 | C=CCOc1ccc(C(=O)/C=C/c2cc(C(=O)O)ccc2O)cc1 | 404 nM | 
6 | Oc1ncnc2[nH]ncc12 [ALLOPURINOL] |  | Activity (Rattus norvegicus [2]): Active; Activity [3]: Toxic; Activity [4]: Non-Toxic
7 | COc1ccc(C(=O)/C=C/c2ccc(C(=O)O)cc2)cc1 |  | IC50 [5]: 100 nM
8 | CC(C)COc1ccc(C(=O)/C=C/c2cc(C(=O)O)ccc2O)cc1 | 306 nM | 
9 | CC(=O)c1ccc(C(=O)/C=C/c2cc(C(=O)O)ccc2O)cc1 | 248 nM | 
10 | O=C(/C=C/c1ccc(O)cc1)c1ccc(O)c(O)c1 |  | IC50 [6]: 5600 nM
11 | O=C(O)c1ccc(O)c(/C=C/C(=O)c2ccsc2)c1 | 215 nM | 
12 | CC1(C)CCSc2ccc(C(=O)/C=C/c3cc(C(=O)O)ccc3O)cc21 | 368 nM | 
13 | C[S+]([O-])c1ccc(C(=O)/C=C/c2cc(C(=O)O)ccc2O)cc1 (configuration not stated) | 311 nM | 
14 | O=C(O)c1ccc(O)c(/C=C/C(=O)c2ccc3ccccc3c2)c1 | 213 nM | 
15 | O=C(O)c1ccc(O)c(/C=C/C(=O)c2ccncc2)c1 | 309 nM | 
16 | COc1ccc(C(=O)/C=C/c2ccc(O)cc2)cc1 |  | IC50 [6]: 4500 nM
17 | O=C(O)c1ccc(O)c(/C=C/C(=O)c2cccc3ccccc23)c1 | 222 nM | 
18 | O=C(O)c1ccc(/C=C/C(=O)c2ccc(O)cc2)cc1 |  | IC50 [5]: 300 nM
19 | O=C(O)c1ccc(O)c(/C=C/C(=O)c2ccccn2)c1 | 307 nM | 
20 | COc1ccc(C(=O)/C=C/c2cc(C(=O)O)ccc2O)cc1 | 266 nM | 
21 | CCOc1ccc(C(=O)/C=C/c2cc(C(=O)O)ccc2O)cc1 | 484 nM | 
22 | C#CCOc1ccc(C(=O)/C=C/c2cc(C(=O)O)ccc2O)cc1 | 274 nM | 
23 | CCCc1ccc(C(=O)/C=C/c2cc(C(=O)O)ccc2O)cc1 | 211 nM | 
24 | CC(C)(C)c1ccc(C(=O)/C=C/c2cc(C(=O)O)ccc2O)cc1 | 555 nM | 
25 | O=C(O)c1ccc(O)c(/C=C/C(=O)c2cccnc2)c1 | 297 nM | 
26 | CCCCOc1ccc(C(=O)/C=C/c2cc(C(=O)O)ccc2O)cc1 | 294 nM | 

Now from value to compound, other results behind:

Row | IC50 [1] | Compound | also measured
27 | 206 nM | O=C(O)c1ccc(O)c(/C=C/C(=O)c2ccccc2)c1 | 
28 | 109 nM | CS(=O)(=O)c1ccc(C(=O)/C=C/c2cc(C(=O)O)ccc2O)cc1 | 
29 | 196 nM | O=C(O)c1ccc(O)c(/C=C/C(=O)c2ccc3ncccc3c2)c1 | 
30 | 176 nM | Cc1ccc(C(=O)/C=C/c2cc(C(=O)O)ccc2O)cc1 | 
31 | 193 nM | CSc1ccc(C(=O)/C=C/c2cc(C(=O)O)ccc2O)cc1 | 
32 | 185 nM | O=C(O)c1ccc(O)c(/C=C/C(=O)c2ccc3c(c2)OCCO3)c1 | 
33 | 139 nM | O=C(O)c1ccc(O)c(/C=C/C(=O)c2ccc3[nH]ccc3c2)c1 | 
34 | 102 nM | CNc1ccc(C(=O)/C=C/c2cc(C(=O)O)ccc2O)cc1 | inhibition (INH) [7]: Active; inhibition (INH) [8]: Active; Activity (AML12): Non-Toxic; Activity (Rattus norvegicus [9]): Active; Activity (Rattus norvegicus [10]): Active; Activity [11]: Non-Toxic; Activity [12]: Non-Toxic; Activity [13]: Non-Toxic
35 | 117 nM | CN(C)c1ccc(C(=O)/C=C/c2cc(C(=O)O)ccc2O)cc1 | 
36 | 178 nM | O=C(O)c1ccc(O)c(/C=C/C(=O)c2ccc3c(c2)OCO3)c1 | 
37 | 127 nM | C#Cc1ccc(C(=O)/C=C/c2cc(C(=O)O)ccc2O)cc1 | 
38 | 64 nM | O=C(O)c1ccc(O)c(/C=C/C(=O)c2ccc3c(c2)CCN3)c1 | inhibition (INH) [7]: Active; inhibition (INH) [8]: Active; Activity (AML12): Non-Toxic
39 | 155 nM | O=C(O)c1ccc(O)c(/C=C/C(=O)c2ccc3c(c2)CCO3)c1 | 
40 | 84 nM | CCc1ccc(C(=O)/C=C/c2cc(C(=O)O)ccc2O)cc1 | inhibition (INH) [7]: Active; inhibition (INH) [8]: Active; viability at 24 h, 20 µM [14]: 82.1%; viability at 24 h, up to 10 µM [15]: > 90%
